{"source": "patent US20070276011A1", "about": "“Plasminogen Activator Inhibitor-1 Inhibitor” (priority 2003, published 2007)", "data": [{"target": "recombinant human PAI-1 (Homo sapiens, UniProt P05121)", "sequence (P05121 24-402)": "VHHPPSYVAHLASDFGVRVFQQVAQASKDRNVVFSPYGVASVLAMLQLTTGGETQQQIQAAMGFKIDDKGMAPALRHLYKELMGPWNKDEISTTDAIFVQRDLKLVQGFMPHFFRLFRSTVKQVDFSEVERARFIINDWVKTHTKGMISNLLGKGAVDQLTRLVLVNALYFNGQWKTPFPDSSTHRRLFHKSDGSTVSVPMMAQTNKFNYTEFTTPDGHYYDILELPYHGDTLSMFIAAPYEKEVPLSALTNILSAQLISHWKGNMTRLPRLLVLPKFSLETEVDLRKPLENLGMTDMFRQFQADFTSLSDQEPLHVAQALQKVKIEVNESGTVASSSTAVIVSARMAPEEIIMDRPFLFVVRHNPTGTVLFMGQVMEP", "assay": "PAI-1 inhibitory activity, Test Method A (tPA fluorogenic substrate, Tris buffer pH8.0, 37 C)", "type": "biochemical", "details": "25 μM test compound; Test Method A", "method": "(§1) To this solution, 50 μL solution of 400 μM fluogenic substrate for tPA (Pyr-Gly-Arg-MCA, Peptide Institute, Inc.) adjusted with the same buffer was added, and reacted for 30 minutes at 37° C. The reaction was stopped by adding 50 μL of 2% acetic acid. Fluorescence was measured at the excitation wavelength=360 nm, emission wavelength=460 or 465 nm using a microplate reader (SPECTRAFLUOR or GENios) by TECAN. The fluorescence intensities in the presence of the PAI-1 as the control (DMSO) or in the absence of the PAI-1 (tPA alone) were taken as 100% and 0% of PAI-1 activities, respectively, and inhibitory ratios of PAI-1 activities in the presence of the test compound were obtained.\n(§2) <Composition of the Tris Buffer (pH8.0)>", "units": {"Inhibitory Ratio at 25 μM (%)": "%"}, "values": [{"smiles": "O=C(Nc1cccc2c1OC(F)(F)O2)c1cc(C=C2SC(=O)N(Cc3ccc(Cl)c(Cl)c3)C2=O)ccc1O", "note": "[compound 460]", "Inhibitory Ratio at 25 μM (%)": 57}, {"smiles": "O=C(Nc1cc(C=C2SC(=O)N(Cc3ccc(Cl)c(Cl)c3)C2=O)ccc1O)c1ccc(OC(F)(F)F)cc1", "note": "[compound 365]", "Inhibitory Ratio at 25 μM (%)": ">99"}, {"smiles": "COc1ccc(C)c(NC(=O)c2cc(C=C3SC(=O)N(Cc4ccc(Cl)c(Cl)c4)C3=O)ccc2O)c1", "note": "[compound 450, 5-[4-hydroxy-3-(2-methyl-5-methoxyphenylcarbamoyl)-benzylidene]-3-(3,4-dichlorobenzyl)thiazolidine-2,4-dione]", "Inhibitory Ratio at 25 μM (%)": 87}, {"smiles": "COc1ccc(NC(=O)c2cc(C=C3SC(=O)N(Cc4ccc(Cl)c(Cl)c4)C3=O)ccc2O)cc1OC", "note": "[compound 351, 5-[4-Hydroxy-3-(3,4-dimethoxyphenylcarbamoyl)benzylidene]-3-(3,4-dichlorobenzyl)thiazolidine-2,4-dione]", "Inhibitory Ratio at 25 μM (%)": 54}, {"smiles": "CCN(CC)c1ccc(O)c(C=C2C(=O)N(c3ccc(Cl)c(Cl)c3)N=C2C(C)C)c1", "note": "[compound 560]", "Inhibitory Ratio at 25 μM (%)": ">99"}, {"smiles": "COc1cc(C=C2SC(=O)N(Cc3ccc(Cl)c(Cl)c3)C2=O)ccc1Cl", "note": "[compound 327, 5-(3-methoxy-4-chlorobenzylidene)-3-(3,4-dichlorobenzyl)-thiazolidine-2,4-dione]", "Inhibitory Ratio at 25 μM (%)": 61}, {"smiles": "O=C(Nc1cc(C(F)(F)F)ccc1F)c1cc(C=C2SC(=O)N(Cc3ccc(Cl)c(Cl)c3)C2=O)ccc1O", "note": "[compound 442]", "Inhibitory Ratio at 25 μM (%)": 58}, {"smiles": "O=C(OCc1ccccc1)c1cc(C=C2SC(=O)N(Cc3ccc(Cl)c(Cl)c3)C2=O)cc(O)c1O", "note": "[compound 463, 5-[3,4-Dihydroxy-5-(benzyloxycarbonyl)benzylidene]-3-(3,4-dichlorobenzyl)thiazolidine-2,4-dione]", "Inhibitory Ratio at 25 μM (%)": ">99"}, {"smiles": "COc1ccc(NC(=O)c2cc(C=C3SC(=O)N(CCc4ccc(Cl)cc4)C3=O)ccc2O)cc1OC", "note": "[compound 375, 5-[4-Hydroxy-3-(3,4-dimethoxyphenylcarbamoyl)benzylidene]-3-[2-(4-chlorophenyl)ethyl]thiazolidine-2,4-dione]", "Inhibitory Ratio at 25 μM (%)": 63}, {"smiles": "O=C(O)c1ccc(CN2C(=O)SC(=Cc3ccc(O)c(C(=O)Nc4ccc(Cl)c(Cl)c4)c3)C2=O)cc1", "note": "[compound 418]", "Inhibitory Ratio at 25 μM (%)": 80}, {"smiles": "CC(C)C1=NN(c2cc(Cl)ccc2Cl)C(=O)C1=Cc1cc(O)c(O)cc1O", "note": "[compound 502, 4-(2,4,5-Trihydroxybenzylidene)-1-(2,5-dichlorophenyl)-3-isopropyl-2-pyrazolin-5-one]", "Inhibitory Ratio at 25 μM (%)": 66}, {"smiles": "O=C(Nc1ccccc1)c1ccc(CN2C(=O)SC(=Cc3ccc(O)c(O)c3)C2=O)cc1", "note": "[compound 301, 5-(3,4-Dihydroxybenzylidene)-3-[4-(phenylcarbamoyl)benzyl]thiazolidine-2,4-dione]", "Inhibitory Ratio at 25 μM (%)": ">99"}, {"smiles": "Cc1cc(C)cc(CN2C(=O)SC(=Cc3ccc(O)c(C(=O)Nc4ccc(O)c(O)c4)c3)C2=O)c1", "note": "[compound 394]", "Inhibitory Ratio at 25 μM (%)": ">99"}, {"smiles": "O=C(Nc1ccc(O)c(O)c1)c1cc(C=C2SC(=O)N(Cc3cc(Cl)cc(Cl)c3)C2=O)ccc1O", "note": "[compound 396]", "Inhibitory Ratio at 25 μM (%)": 95}, {"smiles": "CC(C)C1=NN(c2ccc([N+](=O)[O-])cc2)C(=O)C1=Cc1cc(C=Cc2ccccc2)ccc1O", "note": "[compound 531, 4-(21-Hydroxy-5-styrylbenzylidene)-1-(4-nitrophenyl)-3-isopropyl-2-pyrazolin-5-one]", "Inhibitory Ratio at 25 μM (%)": 50}, {"smiles": "CCOC1=NN(c2ccc([N+](=O)[O-])cc2)C(=O)C1=Cc1c(O)cccc1OC", "note": "[compound 550, 4-(2-hydroxy-6-methoxybenzylidene)-1-(4-nitrophenyl)-3-ethoxy-2-pyrazolin-5-one]", "Inhibitory Ratio at 25 μM (%)": 66}, {"smiles": "COc1ccc(C=C2SC(=O)N(Cc3ccc(Cl)c(Cl)c3)C2=O)cc1C(F)(F)F", "note": "[compound 333]", "Inhibitory Ratio at 25 μM (%)": 73}, {"smiles": "COc1ccc(C=C2SC(=O)N(Cc3ccc(Cl)c(Cl)c3)C2=O)cc1NC(=O)c1ccc(O)c(O)c1", "note": "[compound 359, 5-[4-Methoxy-3-(3,4-dihydroxybenzoylamino)benzylidene]-3-(3,4-dichlorobenzyl)thiazolidine-2,4-dione]", "Inhibitory Ratio at 25 μM (%)": ">99"}, {"smiles": "O=C(Nc1ccc(O)c(O)c1)c1cc(C=C2SC(=O)N(Cc3ccc([N+](=O)[O-])cc3)C2=O)ccc1O", "note": "[compound 378]", "Inhibitory Ratio at 25 μM (%)": 86}, {"smiles": "O=C(Nc1cccc(O)c1)c1cc(C=C2SC(=O)N(Cc3ccc(Cl)c(Cl)c3)C2=O)ccc1O", "note": "[compound 356]", "Inhibitory Ratio at 25 μM (%)": ">99"}, {"smiles": "O=C1C(=Cc2cc(Br)ccc2O)C(c2ccc(O)cc2)=NN1c1cc(Cl)cc(Cl)c1", "note": "[compound 510]", "Inhibitory Ratio at 25 μM (%)": 86}, {"smiles": "CC(C)C1=NN(c2ccc(C=Cc3ccccn3)cc2)C(=O)C1=Cc1cc(O)c(O)cc1O", "note": "[compound 545]", "Inhibitory Ratio at 25 μM (%)": 74}, {"smiles": "COc1ccc(C=C2SC(=O)N(Cc3ccc(Cl)c(Cl)c3)C2=O)cc1F", "note": "[compound 331, 5-(3-fluoro-4-methoxybenzylidene)-3-(3,4-dichlorobenzyl)-thiazolidine-2,4-dione]", "Inhibitory Ratio at 25 μM (%)": 35}, {"smiles": "CC(C)C1=NN(c2cc(Cl)cc(Cl)c2)C(=O)C1=Cc1cc(O)c(O)c(Br)c1", "note": "[compound 540]", "Inhibitory Ratio at 25 μM (%)": ">99"}, {"smiles": "O=C1C(=Cc2ccc(O)c(O)c2)SC(=S)N1Cc1ccc(C(F)(F)F)cc1", "note": "[compound 307, 5-(3,4-Dihydroxybenzylidene)-3-[4-(trifluoromethyl)benzyl]rhodanine]", "Inhibitory Ratio at 25 μM (%)": ">99"}, {"smiles": "COC(=O)c1cc(C=C2SC(=O)N(Cc3ccc(Cl)c(Cl)c3)C2=O)cc(OC)c1O", "note": "[compound 343, 5-[3-methoxy-4-hydroxy-5-(methoxycarbonyl)benzylidene]-3-(3,4-dichlorobenzyl)thiazolidine-2,4-dione]", "Inhibitory Ratio at 25 μM (%)": 71}, {"smiles": "COCC1=NN(c2cc(Cl)cc(Cl)c2)C(=O)C1=Cc1cc(O)c(O)cc1O", "note": "[compound 522]", "Inhibitory Ratio at 25 μM (%)": ">99"}]}, {"target": "recombinant human PAI-1 (Homo sapiens, UniProt P05121)", "assay": "PAI-1 inhibitory activity, Test Method A (tPA fluorogenic substrate, Tris buffer pH8.0, 37 C)", "type": "biochemical", "details": "50% inhibitory concentration of PAI-1 activity, according to the aforementioned method", "method": "as §1, §2", "units": {"IC50": "nM"}, "values": [{"smiles": "O=C1C(=Cc2ccc(O)c(O)c2)SC(=S)N1Cc1ccc(C(F)(F)F)cc1", "note": "[compound 307, 5-(3,4-Dihydroxybenzylidene)-3-[4-(trifluoromethyl)benzyl]rhodanine]", "IC50": 580}]}, {"target": "recombinant human PAI-1 (Homo sapiens, UniProt P05121)", "assay": "PAI-1 inhibitory activity, Test Method A (tPA fluorogenic substrate, Tris buffer pH8.0, 37 C)", "type": "biochemical", "details": "test compound 25 μM; Test Method A", "method": "as §1, §2", "units": {"Inhibitory Ratio at 25 μM (%)": "%"}, "values": [{"smiles": "COc1cc(OC)c(OC)cc1CN1C(=O)SC(=Cc2cccc(O)c2O)C1=O", "note": "[compound 15, 5-(2,3-Dihydroxybenzylidene)-3-(2,4,5-trimethoxybenzyl)thiazolidine-2,4-dione]", "Inhibitory Ratio at 25 μM (%)": 93}, {"smiles": "O=C1SC(=Cc2ccc(O)c(O)c2)C(=O)N1Cc1ccc([N+](=O)[O-])cc1", "note": "[compound 50, 5-(3,4-Dihydroxybenzylidene)-3-(4-nitrobenzyl)thiazolidine-2,4-dione]", "Inhibitory Ratio at 25 μM (%)": 82}, {"smiles": "CC(C)C1=NN(c2cc(Cl)cc(Cl)c2)C(=O)C1=Cc1ccc(O)c(C(=O)O)c1", "note": "[compound 106]", "Inhibitory Ratio at 25 μM (%)": ">99"}, {"smiles": "CC(C)(C)C1=NN(c2cccc(C(=O)O)c2)C(=O)C1=Cc1ccc(Cl)c(Cl)c1", "note": "[compound 198]", "Inhibitory Ratio at 25 μM (%)": 40}, {"smiles": "O=C1SC(=Cc2cc(O)cc(O)c2)C(=O)N1Cc1ccc(Cl)c(Cl)c1", "note": "[compound 40]", "Inhibitory Ratio at 25 μM (%)": ">99"}, {"smiles": "O=C1C(=Cc2ccc(Cl)c(Cl)c2)C(c2ccccc2)=NN1c1cccc([N+](=O)[O-])c1", "note": "[compound 201]", "Inhibitory Ratio at 25 μM (%)": ">99"}, {"smiles": "O=C1C(=Cc2cc(O)c(O)c(O)c2)C(c2ccccc2)=NN1c1ccc(Cl)c(Cl)c1", "note": "[compound 146]", "Inhibitory Ratio at 25 μM (%)": ">99"}, {"smiles": "O=C1SC(=Cc2ccc(Cl)c(Cl)c2)C(=O)N1Cc1cc(O)c(O)c(O)c1", "note": "[compound 78, 5-(3,4-Dichlorobenzylidene)-3-(3,4,5-trihydroxybenzyl)thiazolidine-2,4-dione]", "Inhibitory Ratio at 25 μM (%)": 90}, {"smiles": "O=C(O)c1cccc(N2N=C(C(F)(F)F)C(=Cc3ccc(-c4cc(C(F)(F)F)cc(C(F)(F)F)c4)o3)C2=O)c1", "note": "[compound 179]", "Inhibitory Ratio at 25 μM (%)": 62}, {"smiles": "CC(C)C1=NN(c2cc(Cl)cc(Cl)c2)C(=O)C1=Cc1cccc(O)c1O", "note": "[compound 104, 4-(2,3-Dihydroxybenzylidene)-1-(3,5-dichlorophenyl)-3-isopropyl-2-pyrazolin-5-one]", "Inhibitory Ratio at 25 μM (%)": 92}, {"smiles": "COC(=O)c1cccc(N2N=C(C(F)(F)F)C(=Cc3ccc(-c4cc(Cl)cc(Cl)c4)o3)C2=O)c1", "note": "[compound 166, 4-{[5-(3,5-Dichlorophenyl)furan-2-yl]methylene}-1-[3-(methoxycarbonyl)phenyl]-3-trifluoromethyl-2-pyrazolin-5-one]", "Inhibitory Ratio at 25 μM (%)": ">99"}, {"smiles": "O=C1SC(=Cc2cccc(O)c2O)C(=O)N1Cc1cccc(Cl)c1", "note": "[compound 30, 5-(2,3-Dihydroxybenzylidene)-3-(3-chlorobenzyl)thiazolidine-2,4-dione]", "Inhibitory Ratio at 25 μM (%)": ">99"}, {"smiles": "CC(C)C1=NN(c2cc(Cl)cc(Cl)c2)C(=O)C1=Cc1cc(Br)cc(Br)c1O", "note": "[compound 105]", "Inhibitory Ratio at 25 μM (%)": ">99"}, {"smiles": "CCOC1=NN(c2ccc([N+](=O)[O-])cc2)C(=O)C1=Cc1ccc(O)c(O)c1O", "note": "[compound 155]", "Inhibitory Ratio at 25 μM (%)": 39}, {"smiles": "O=C1SC(=Cc2ccc(O)c(O)c2)C(=O)N1Cc1cc(F)cc(F)c1", "note": "[compound 25]", "Inhibitory Ratio at 25 μM (%)": ">99"}, {"smiles": "O=C(O)c1ccc(Cl)c(-c2ccc(C=C3C(=O)N(c4cccc(C(F)(F)F)c4)N=C3O)o2)c1", "note": "[compound 220]", "Inhibitory Ratio at 25 μM (%)": ">99"}, {"smiles": "CC(C)C1=NN(c2cc(Cl)cc(Cl)c2)C(=O)C1=Cc1ccc(O)c(O)c1", "note": "[compound 107]", "Inhibitory Ratio at 25 μM (%)": ">99"}, {"smiles": "O=C1SC(=Cc2cccc(O)c2O)C(=O)N1Cc1ccc(-c2ccccc2)cc1", "note": "[compound 20, 5-(2,3-Dihydroxybenzylidene)-3-(4-phenylbenzyl)thiazolidine-2,4-dione]", "Inhibitory Ratio at 25 μM (%)": ">99"}, {"smiles": "O=C1C(=Cc2ccc(-c3cc(Cl)cc(Cl)c3)o2)C(C(F)(F)F)=NN1c1cccc([N+](=O)[O-])c1", "note": "[compound 182]", "Inhibitory Ratio at 25 μM (%)": 90}, {"smiles": "O=C1C(=Cc2ccc(Br)o2)C(c2ccccc2)=NN1c1cccc([N+](=O)[O-])c1", "note": "[compound 199]", "Inhibitory Ratio at 25 μM (%)": 85}]}]}
